Test results published in EPA's ToxValDB 9.5 (doi:10.2903/j.efsa.2008.170r).

What was measured:
Apis mellifera = conditions: acute; dermal; mortality
Bird = conditions: chronic/long-term; mortality
Canidae = conditions: chronic; duration: 1 years; oral; Dog Other; body weight
Daphnia magna = conditions: chronic/long-term
Rattus norvegicus = conditions: acute; mortality
Typhlodromus pyri = conditions: not reported; mortality

With `CC(=O)O.CC1CN(C2CCCCCCCCCCC2)CC(C)O1` (configuration not stated) [Dodemorph acetate] the LD50 (Apis mellifera) was > 76.6 µg/piece, the LD50 (Bird) was 9.4 mg/kg-day and the NOAEL (Canidae) was 10 mg/kg-day. It also gave an NOEC (Daphnia magna) of 0.08 mg/L, an LC50 (Oncorhynchus mykiss; acute, duration: 96 hours, mortality) of 1.23 µg/mL and an NOEC (Oncorhynchus mykiss; chronic/long-term, duration: 28 days, growth) of 0.1 mg/L. It also gave an LD50 (Oryctolagus sp.; acute, mortality) of 21 mg/kg-day, an NOAEL (Oryctolagus sp.; developmental, development) of 40 mg/kg-day and an LD50 (Rattus norvegicus) of 4100 mg/kg. The LC50 (Tagia sp.; acute, duration: 14 days, mortality) was > 824 mg/kg, the NOEC (Tagia sp.; chronic/long-term, duration: 56 days, other) was 103 mg/kg and the LEL (Typhlodromus pyri) was 660 g/ha.
